Molecules are shown by their SMILES.

The target in data set [1] is ATP-binding cassette sub-family C member 2 (Homo sapiens, UniProt Q92887). Briefly: TP_TRANSPORTER: inhibition of LTC4 uptake (LTC4: 0.05 uM) in HepG2 cells. It counts as functional, cell-based.
Data set [2] addresses T1, ATP-binding cassette sub-family C member 2 (Rattus norvegicus, UniProt Q63120). Briefly: TP_TRANSPORTER: uptake in bile canalicular membranes from Wistar/TR- rat. In kind it is functional, cell membranes, Bile canalicular membrane.
In data set [3] the target is T1, ATP-binding cassette sub-family C member 2. Briefly: TP_TRANSPORTER: inhibition of LTC4 uptake (LTC4: 0.05 uM) in bile canalicular membranes from Wistar rat. In kind it is functional, cell membranes, Bile canalicular membrane.
In data set [4] the target is T2, Multidrug resistance-associated protein 1 (Homo sapiens, UniProt P33527). In words: TP_TRANSPORTER: uptake in membrane vesicle from MRP1-expressing HeLa cells. It counts as functional, cell membranes.
Data set [5] has as its target T2, Multidrug resistance-associated protein 1. In words: TP_TRANSPORTER: inhibition of LTC4 uptake (LTC4: 0.05 uM) in membrane vesicle from MRP1-expressing HeLa cells. In kind it is functional, cell membranes.

T2 sequence (P33527 whole entry): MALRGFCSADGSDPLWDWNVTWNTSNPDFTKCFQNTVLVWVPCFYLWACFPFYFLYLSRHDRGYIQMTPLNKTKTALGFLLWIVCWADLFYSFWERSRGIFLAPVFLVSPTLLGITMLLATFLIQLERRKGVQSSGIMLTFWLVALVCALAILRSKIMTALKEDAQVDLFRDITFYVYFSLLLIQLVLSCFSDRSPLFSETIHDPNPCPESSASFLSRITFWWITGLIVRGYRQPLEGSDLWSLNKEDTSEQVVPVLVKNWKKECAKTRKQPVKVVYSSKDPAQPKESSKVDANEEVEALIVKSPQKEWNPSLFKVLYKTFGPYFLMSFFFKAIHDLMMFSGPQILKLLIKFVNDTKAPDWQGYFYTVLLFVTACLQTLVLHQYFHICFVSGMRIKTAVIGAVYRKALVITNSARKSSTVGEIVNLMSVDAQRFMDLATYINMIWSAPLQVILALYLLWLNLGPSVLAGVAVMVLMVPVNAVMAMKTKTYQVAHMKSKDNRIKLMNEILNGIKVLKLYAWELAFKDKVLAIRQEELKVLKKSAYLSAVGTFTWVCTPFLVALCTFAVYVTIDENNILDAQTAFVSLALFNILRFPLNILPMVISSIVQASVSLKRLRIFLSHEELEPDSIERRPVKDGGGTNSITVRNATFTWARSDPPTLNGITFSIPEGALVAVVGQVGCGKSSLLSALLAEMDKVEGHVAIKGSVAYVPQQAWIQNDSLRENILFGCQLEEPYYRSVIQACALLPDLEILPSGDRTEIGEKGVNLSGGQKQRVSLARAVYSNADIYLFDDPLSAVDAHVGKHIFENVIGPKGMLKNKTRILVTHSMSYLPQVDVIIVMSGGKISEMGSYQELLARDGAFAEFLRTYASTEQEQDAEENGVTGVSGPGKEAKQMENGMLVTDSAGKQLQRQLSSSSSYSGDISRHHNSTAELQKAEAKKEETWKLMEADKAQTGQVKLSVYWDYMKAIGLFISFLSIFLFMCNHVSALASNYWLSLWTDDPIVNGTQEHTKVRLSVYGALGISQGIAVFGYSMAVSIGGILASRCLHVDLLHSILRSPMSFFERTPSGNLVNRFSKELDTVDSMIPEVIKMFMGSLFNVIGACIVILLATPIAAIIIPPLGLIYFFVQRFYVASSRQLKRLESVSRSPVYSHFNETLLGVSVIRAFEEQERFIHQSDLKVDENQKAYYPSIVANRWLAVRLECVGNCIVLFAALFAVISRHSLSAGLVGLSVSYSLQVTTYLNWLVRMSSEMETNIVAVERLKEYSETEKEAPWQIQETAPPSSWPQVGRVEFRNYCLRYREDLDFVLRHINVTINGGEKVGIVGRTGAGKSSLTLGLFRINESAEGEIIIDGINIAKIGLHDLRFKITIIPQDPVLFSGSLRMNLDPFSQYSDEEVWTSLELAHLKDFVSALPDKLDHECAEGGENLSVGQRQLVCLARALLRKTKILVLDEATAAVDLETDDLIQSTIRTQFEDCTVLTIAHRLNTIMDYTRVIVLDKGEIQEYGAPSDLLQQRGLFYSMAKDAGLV
T1 sequence (Q63120 whole entry): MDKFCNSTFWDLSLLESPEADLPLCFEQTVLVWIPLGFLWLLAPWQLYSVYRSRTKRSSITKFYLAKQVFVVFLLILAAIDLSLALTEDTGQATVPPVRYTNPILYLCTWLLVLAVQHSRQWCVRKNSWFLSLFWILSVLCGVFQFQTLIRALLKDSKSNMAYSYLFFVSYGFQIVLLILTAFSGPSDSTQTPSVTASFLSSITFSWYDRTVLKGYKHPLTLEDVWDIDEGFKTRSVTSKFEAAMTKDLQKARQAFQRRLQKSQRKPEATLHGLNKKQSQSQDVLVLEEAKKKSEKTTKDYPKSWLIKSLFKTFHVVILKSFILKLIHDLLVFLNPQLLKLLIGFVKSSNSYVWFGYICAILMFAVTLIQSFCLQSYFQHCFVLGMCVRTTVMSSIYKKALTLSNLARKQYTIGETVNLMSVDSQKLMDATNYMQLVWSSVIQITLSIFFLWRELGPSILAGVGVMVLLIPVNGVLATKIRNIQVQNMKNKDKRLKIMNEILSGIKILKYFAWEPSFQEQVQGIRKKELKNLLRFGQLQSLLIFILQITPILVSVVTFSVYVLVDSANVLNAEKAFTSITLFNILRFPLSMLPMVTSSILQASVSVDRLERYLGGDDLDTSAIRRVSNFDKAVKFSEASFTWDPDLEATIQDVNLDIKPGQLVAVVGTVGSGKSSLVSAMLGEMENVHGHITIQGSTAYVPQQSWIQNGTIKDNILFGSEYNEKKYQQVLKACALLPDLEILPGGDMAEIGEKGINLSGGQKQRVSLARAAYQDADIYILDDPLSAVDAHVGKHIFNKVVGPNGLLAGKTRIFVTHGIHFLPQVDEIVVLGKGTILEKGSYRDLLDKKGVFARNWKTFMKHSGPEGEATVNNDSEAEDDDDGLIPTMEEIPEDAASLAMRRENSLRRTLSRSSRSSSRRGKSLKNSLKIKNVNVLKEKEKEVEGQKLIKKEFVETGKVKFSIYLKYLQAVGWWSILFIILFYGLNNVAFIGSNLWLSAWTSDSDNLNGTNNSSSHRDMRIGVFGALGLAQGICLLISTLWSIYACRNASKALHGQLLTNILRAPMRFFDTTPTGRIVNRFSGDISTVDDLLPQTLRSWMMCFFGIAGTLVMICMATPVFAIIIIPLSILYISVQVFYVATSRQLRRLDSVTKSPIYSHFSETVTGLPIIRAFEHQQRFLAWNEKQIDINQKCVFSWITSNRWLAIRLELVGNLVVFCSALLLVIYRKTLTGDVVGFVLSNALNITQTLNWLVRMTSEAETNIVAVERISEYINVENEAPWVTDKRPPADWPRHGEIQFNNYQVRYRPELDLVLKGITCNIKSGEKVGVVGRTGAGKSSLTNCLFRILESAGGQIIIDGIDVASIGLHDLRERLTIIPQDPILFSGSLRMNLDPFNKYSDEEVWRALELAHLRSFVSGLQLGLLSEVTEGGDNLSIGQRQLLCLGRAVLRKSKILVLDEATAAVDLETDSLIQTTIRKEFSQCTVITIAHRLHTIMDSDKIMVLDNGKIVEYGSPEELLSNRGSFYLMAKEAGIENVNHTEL
Sequence of ATP-binding cassette sub-family C member 2 (Homo sapiens, UniProt Q92887) (Q92887 whole entry): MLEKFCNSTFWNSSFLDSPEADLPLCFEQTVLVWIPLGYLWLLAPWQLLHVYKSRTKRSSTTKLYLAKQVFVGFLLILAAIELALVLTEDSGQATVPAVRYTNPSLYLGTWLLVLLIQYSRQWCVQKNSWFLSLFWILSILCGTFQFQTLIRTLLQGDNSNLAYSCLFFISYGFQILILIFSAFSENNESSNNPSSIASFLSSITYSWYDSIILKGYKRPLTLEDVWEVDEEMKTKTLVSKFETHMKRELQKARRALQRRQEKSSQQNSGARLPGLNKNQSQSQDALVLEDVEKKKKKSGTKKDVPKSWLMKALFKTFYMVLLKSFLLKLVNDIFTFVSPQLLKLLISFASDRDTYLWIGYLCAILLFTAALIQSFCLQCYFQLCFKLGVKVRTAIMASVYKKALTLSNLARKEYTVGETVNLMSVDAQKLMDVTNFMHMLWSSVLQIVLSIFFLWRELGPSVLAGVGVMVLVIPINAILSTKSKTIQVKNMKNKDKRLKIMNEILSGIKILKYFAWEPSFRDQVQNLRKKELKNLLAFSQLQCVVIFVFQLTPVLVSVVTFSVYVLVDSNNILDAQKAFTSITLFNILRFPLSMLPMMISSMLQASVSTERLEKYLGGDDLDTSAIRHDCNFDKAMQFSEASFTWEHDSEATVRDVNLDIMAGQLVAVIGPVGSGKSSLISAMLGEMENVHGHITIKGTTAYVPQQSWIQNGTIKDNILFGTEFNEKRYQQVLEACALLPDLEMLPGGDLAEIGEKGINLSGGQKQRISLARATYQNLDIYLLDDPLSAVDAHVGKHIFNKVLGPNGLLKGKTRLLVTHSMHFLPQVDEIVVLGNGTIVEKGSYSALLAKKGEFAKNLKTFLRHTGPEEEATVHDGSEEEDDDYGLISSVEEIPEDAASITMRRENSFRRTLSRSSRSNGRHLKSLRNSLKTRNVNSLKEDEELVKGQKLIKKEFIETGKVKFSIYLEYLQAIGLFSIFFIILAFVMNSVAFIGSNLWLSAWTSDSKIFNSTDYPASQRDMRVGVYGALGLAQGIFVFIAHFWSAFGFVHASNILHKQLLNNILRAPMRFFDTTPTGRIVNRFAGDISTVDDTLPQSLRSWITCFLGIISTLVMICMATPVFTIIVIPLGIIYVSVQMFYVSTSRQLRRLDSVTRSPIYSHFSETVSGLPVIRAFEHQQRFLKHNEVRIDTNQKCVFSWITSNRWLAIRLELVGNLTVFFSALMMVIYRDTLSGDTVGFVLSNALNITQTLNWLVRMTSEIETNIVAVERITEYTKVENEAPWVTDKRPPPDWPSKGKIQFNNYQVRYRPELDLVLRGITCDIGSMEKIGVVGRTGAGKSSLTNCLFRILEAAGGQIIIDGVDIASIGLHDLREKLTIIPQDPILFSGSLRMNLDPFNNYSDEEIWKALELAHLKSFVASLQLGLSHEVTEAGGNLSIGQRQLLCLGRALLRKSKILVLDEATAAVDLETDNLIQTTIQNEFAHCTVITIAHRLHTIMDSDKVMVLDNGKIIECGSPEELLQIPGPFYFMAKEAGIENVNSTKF

As a reminder, the IC50 is the concentration at which inhibition is half-maximal. As for `C=CC1=C(C)/C(=C/c2[nH]c(Cc3[nH]c(/C=C4\NC(=O)C(C)=C4C=C)c(C)c3CCC(=O)O[C@@H]3O[C@@H](C(=O)O)[C@H](O)[C@@H](O)[C@@H]3O)c(CCC(=O)O[C@@H]3O[C@H](C(=O)O)[C@H](O)[C@H](O)[C@@H]3O)c2C)NC1=O`, the concentration for half-maximal inhibition (IC50) was determined as 400 nM in data set [1], 100 nM in data set [3] and 750 nM in data set [5]. Besides, the Activity result in data set [2] and in data set [4] was “substrate [+]” throughout.

Regarding `C=CC1=C(C)/C(=C/c2[nH]c(Cc3[nH]c(/C=C4\NC(=O)C(C)=C4C=C)c(C)c3CCC(=O)O[C@@H]3OC(C(=O)O)[C@@H](O)C(O)C3O)c(CCC(=O)O)c2C)NC1=O` (stereo not given in full) [BILIRUBIN MONOGLUCURONIDE], the half-inhibitory concentration (IC50) came out at 280 nM in data set [1], 120 nM in data set [3] and 420 nM in data set [5]. Further, the Activity entry in data set [2] and in data set [4] was “substrate [+]” each time.

For the origin of these results see ChEMBL document CHEMBL2074539, “ATP-dependent transport of bilirubin glucuronides by the multidrug resistance protein MRP1 and its hepatocyte canalicular isoform MRP2” (Biochem J, 1997).
